Key:
Experiment in all cases: KinomeScan profiling
Format in all cases: binding
Details in all cases: read-out: % control
[1] = target: T1, INSRR (Homo sapiens, UniProt P14616)
T1 construct: purchased KinomeScan®
Experimental: (§1) The kinase selectivity of inventive compounds 77, 96 and 101 was evaluated by KinomeScan®. KinomeScan® analysis was performed against a near comprehensive panel of 468 kinases. The control percentage (% control) for inventive compounds at 1 μM in DMSO was determined by Equation 1: % control=(inventive compound−positive control)/(negative control−positive control)×100%, Equation 1
(§2) wherein the positive control is a compound with a % control value of 0% relative light units (RLU), and the negative control (i.e., DMSO) has % control value of 100% RLU. The enzyme selectivity in the present invention is defined as follows: inventive compounds are considered active for an enzyme when the observed % control is less than 35% (<35%).

[2] = target: T2, HUNK (Homo sapiens, UniProt P57058)
T2 sequence (P57058 1-714): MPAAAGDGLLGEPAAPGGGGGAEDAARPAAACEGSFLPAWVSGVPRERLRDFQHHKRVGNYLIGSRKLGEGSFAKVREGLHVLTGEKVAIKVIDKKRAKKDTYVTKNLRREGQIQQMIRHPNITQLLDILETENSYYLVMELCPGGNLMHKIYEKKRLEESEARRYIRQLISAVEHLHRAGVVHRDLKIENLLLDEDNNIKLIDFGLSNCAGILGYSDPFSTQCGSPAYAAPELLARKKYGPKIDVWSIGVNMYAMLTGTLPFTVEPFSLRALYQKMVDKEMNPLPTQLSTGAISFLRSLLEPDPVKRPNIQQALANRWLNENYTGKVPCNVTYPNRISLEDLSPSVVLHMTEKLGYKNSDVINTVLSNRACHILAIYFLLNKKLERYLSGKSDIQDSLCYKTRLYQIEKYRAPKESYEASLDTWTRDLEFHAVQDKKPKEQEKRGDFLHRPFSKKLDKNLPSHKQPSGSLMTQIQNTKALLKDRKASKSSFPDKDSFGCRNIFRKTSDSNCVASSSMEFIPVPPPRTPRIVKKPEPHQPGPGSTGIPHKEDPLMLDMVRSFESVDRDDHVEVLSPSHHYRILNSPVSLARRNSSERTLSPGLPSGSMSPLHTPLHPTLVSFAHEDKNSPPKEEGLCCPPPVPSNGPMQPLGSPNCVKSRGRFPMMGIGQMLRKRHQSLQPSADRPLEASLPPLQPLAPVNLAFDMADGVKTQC
Experimental: as §1, §2

[3] = target: T3, FLT3(D835V) (Homo sapiens, UniProt P36888, D835V)
T3 sequence (P36888 27-993 D835V): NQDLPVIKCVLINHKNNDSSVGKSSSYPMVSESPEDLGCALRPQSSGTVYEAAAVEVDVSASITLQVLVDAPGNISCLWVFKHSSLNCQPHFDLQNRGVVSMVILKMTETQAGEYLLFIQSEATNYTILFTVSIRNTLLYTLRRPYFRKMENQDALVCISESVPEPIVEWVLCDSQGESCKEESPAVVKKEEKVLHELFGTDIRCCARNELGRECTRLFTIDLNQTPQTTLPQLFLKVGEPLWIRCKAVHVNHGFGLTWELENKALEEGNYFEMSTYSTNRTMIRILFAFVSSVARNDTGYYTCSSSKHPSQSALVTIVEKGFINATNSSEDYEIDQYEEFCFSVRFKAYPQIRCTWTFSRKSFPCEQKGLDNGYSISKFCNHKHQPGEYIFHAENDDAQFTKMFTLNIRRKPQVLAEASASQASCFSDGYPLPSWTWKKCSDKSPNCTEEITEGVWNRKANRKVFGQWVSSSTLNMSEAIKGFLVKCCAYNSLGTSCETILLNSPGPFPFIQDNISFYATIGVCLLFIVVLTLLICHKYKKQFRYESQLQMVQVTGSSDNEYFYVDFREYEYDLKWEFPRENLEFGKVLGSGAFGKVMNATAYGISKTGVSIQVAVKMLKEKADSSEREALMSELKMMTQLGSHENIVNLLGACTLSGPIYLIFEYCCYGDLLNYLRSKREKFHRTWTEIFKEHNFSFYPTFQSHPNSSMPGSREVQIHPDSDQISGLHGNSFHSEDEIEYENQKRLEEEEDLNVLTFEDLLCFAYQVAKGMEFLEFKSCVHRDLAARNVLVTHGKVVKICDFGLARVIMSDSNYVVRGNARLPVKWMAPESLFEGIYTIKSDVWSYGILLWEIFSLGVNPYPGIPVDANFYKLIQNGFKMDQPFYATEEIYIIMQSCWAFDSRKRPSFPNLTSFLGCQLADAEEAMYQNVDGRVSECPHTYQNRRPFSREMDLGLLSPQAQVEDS
Experimental: as §1, §2

[4] = target: T4, JAK1(JH1domain-catalytic) (Homo sapiens, UniProt P23458)
T4 construct: JAK1(JH1domain-catalytic); purchased KinomeScan®
T4 sequence (P23458 875-1153 limits assumed): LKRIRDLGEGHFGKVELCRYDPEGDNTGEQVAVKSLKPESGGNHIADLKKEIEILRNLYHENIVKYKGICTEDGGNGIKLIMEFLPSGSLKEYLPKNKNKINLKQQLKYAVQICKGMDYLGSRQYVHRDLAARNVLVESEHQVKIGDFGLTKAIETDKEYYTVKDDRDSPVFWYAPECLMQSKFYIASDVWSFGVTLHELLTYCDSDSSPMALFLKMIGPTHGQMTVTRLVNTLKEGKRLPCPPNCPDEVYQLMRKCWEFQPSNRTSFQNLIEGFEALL
Experimental: as §1, §2

T1 sequence (P14616 27-1297): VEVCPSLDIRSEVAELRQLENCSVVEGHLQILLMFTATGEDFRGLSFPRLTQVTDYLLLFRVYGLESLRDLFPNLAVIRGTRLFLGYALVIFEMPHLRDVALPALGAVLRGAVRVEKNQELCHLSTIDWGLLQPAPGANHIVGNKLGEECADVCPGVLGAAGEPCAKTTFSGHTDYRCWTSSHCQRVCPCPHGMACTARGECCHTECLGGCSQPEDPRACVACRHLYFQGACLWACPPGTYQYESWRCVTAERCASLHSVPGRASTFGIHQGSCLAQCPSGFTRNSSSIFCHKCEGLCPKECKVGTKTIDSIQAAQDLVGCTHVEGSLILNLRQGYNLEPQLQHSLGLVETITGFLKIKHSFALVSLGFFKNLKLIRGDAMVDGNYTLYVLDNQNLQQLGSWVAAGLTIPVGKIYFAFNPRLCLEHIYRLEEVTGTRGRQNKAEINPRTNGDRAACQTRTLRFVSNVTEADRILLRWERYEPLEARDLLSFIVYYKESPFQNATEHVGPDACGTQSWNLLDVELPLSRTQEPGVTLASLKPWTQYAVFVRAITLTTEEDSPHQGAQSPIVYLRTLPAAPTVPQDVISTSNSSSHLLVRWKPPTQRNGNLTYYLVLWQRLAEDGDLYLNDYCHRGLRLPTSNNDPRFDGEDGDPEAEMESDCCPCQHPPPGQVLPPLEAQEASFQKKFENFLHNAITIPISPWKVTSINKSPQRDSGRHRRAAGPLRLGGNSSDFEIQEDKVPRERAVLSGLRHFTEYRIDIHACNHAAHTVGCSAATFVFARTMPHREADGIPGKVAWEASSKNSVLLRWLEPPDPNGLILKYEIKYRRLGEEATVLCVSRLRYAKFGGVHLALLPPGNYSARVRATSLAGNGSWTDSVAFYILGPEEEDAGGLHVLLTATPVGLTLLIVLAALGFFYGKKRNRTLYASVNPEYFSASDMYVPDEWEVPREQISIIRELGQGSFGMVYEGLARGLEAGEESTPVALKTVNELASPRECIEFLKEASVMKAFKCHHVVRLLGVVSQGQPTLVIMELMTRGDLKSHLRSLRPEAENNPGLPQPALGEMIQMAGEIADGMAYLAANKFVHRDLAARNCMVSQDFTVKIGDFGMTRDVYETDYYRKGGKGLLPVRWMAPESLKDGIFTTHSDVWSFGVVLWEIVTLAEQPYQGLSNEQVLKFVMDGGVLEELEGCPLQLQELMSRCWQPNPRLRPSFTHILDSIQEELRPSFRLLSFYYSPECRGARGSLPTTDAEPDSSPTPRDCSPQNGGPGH

Structure (SMILES) | remaining binding at 1 µM [1] [%] | remaining binding at 1 µM [2] [%] | remaining binding at 1 µM [3] [%] | remaining binding at 1 µM [4] [%]
CNc1c(-c2cnn([C@H]3CCN(C(C)=O)C[C@@H]3F)c2)cnc2[nH]cc(Cl)c12 [Compound 77, 1-((3S,4S)-4-(4-(3-chloro-4-(methylamino)-1H-pyrrolo[2,3-b]pyridin-5-yl)-1H-pyrazol-1-yl)-3-fluoropiperidin-1-yl)ethan-1-one] | 92 | 100 | 0.5 | 98
O=C(c1ccc(-c2cnc3[nH]cc(Cl)c3c2NC2CCCC2)cc1)N1CCC(N2CCOCC2)CC1 [Compound 101, (4-(3-chloro-4-(cyclopentylamino)-1H-pyrrolo[2,3-b]pyridin-5-yl)phenyl)(4-morpholinopiperidin-1-yl)methanone] | 84 | 100 | 6.4 | 90
CNc1c(-c2ccc(C(=O)N3CCC(N4CCOCC4)CC3)cc2)cnc2[nH]cc(Cl)c12 [Compound 96, (4-(3-chloro-4-(methylamino)-1H-pyrrolo[2,3-b]pyridin-5-yl)phenyl)(4-morpholinopiperidin-1-yl)methanone] | 96 | 100 | 2.9 | 100
